Series [1] can be described thus: Lethality (LD50) by oral administration in the Swiss mouse. The note with it: in vivo, 20% solution in Tween, 14 days observation. As to the method:
The lethality produced by the compounds of this invention was measured in the Swiss mouse free from specific pathogenic organisms.

For series [2], the system named is isolated ileum of the guinea pig. As to the kind of experiment: Antihistaminic activity in vitro: inhibition of histamine-induced contractions of isolated ileum. The format is cell-based. The conditions noted are these: Cavia porcellus, histamine 1×10^-8 g/l, bathing method, read-out: IC50 (concentration producing 50% inhibition of contractions induced by histamine). As to the method:
The antihistaminic activity was measured in vitro by measuring the concentration which produced 50% inhibition of the contractions induced by histamine (1×10^-8 g/l) in the isolated ileum of the guinea pig (IC50).

Series [3] has as its system male Sprague-Dawley rats. As to the kind of experiment: Antiallergic activity: passive cutaneous anaphylaxis test. The format is in vivo. The conditions noted are these: oral, suspension with Tween 80, ten minutes before the releasing injection, rat; read-out: ED50 (percentage decrease of the amount of Evans blue diffused in the papule). As to the method:
The antiallergic activity was determined by the passive cutaneous anaphylaxis test in the following manner. A quantity of 0.1 ml of serum containing IgE was administered intradermally to male Sprague-Dawley rats. The serum was prepared by sensitizing Sprague-Dawley rats by an intraperitoneal injection of ovalbumin and a suspension of Bordetella pertussis followed after 20 days by a second injection of ovalbumin. 24 Hours after administration of the serum, 0.5 ml of a solution containing 8.25 mg/kg of ovalbumin and 26.4 mg/kg of Evans blue in a pH 7.05 buffer was administered intravenously. After 30 minutes the animals were sacrificed. Each papule was dissected, weighed and incubated for four days at 37° C. in 15 g of formamide. The amount of Evans blue contained in each papule was determined by measuring the optical density of the mixture. The product to be tested was administered orally in a homogenous suspension in the presence of Tween 80, ten minutes before the releasing injection. Its activity is evaluated by the percentage decrease of the amount of Evans blue which has diffused in the papule.

SMILES strings stand for the structures. In brackets after ≈: the same amount, converted by molar mass.

In general, LD50 refers to the dose expected to kill half of the subjects tested. Higher therefore signals lower toxicity. As usually defined, the ED50 is the midpoint of the dose-response relation.

In the case of `Nc1ccccc1CCN1CCN(c2ccccc2)CC1` [Example 1, 2-(4-phenylpiperazinylethyl)aniline], the LD50 at 336 h in series [1] was determined as 1180 mg/kg. Moreover, the IC50 in series [2] worked out at 6.3 µg/mL (≈ 22.4 µM). In addition, in series [3], the 50% effective dose (ED50) is 5.11 mg/kg.

These data come from patent publication US4668681A, “2-(4-Phenylpiperazinylethyl) anilines” (Societe Cortial, S.A., priority 1981, dated 1987).
